According to patent US8685963B2, “Compounds that inhibit NFκB and BACE1 activity” (The Trustees of Columbia University in the city of New York, priority 2008, dated 2014):

Tests used:
NFkB [1] = assay: TNFα-induced NFkB nuclear translocation high-content screen in HUVEC; assay type: cell-based, human
Description: FIG. 5A-B depicts (A) The two-color dual luciferase based assay. IκBα is fused to a luciferase emitting greenlight (CBG68), while a red light-emitting luciferase (CBR) is present in its native state. Both luciferases are regulated by binding of the tet repressor to the tet operator (TO) binding site (TO), allowing simultaneous induction of the luciferases by the CMV promoter upon addition of doxycycline and test compounds. The CBR protein serves to normalize for non-specific effects, while the levels of the IκBα-CBG68 protein increase uniquely with inhibition of the NFκB pathway leading to IκBα degradation. (B) The nuclear translocation assay. TNFα stimulation results in nuclear translocation of NFκB, which is detected by immunofluorescence using an anti-p65 antibody and a secondary antibody labeled with an Alexa 647 fluorophore (A647). […] In the assay, nuclear translocation of the endogenous p65 RelA subunit of NFkB, at 30 min post-stimulation, was monitored using fluorescent antibody detection and an automated imaging platform. (Mayer et al., 2006, Methods Enzyme 414:266) NFkB inhibitors in this assay, such as IkBα stabilizers, were detected as compounds that interfered with p65 translocation to the nucleus.

IkBα = assay: dual luciferase IkBα stabilization screen in OCI-Ly3; assay type: cell-based; details: OCI-Ly3 cells
Description: FIG. 5A-B depicts (A) The two-color dual luciferase based assay. IκBα is fused to a luciferase emitting greenlight (CBG68), while a red light-emitting luciferase (CBR) is present in its native state. Both luciferases are regulated by binding of the tet repressor to the tet operator (TO) binding site (TO), allowing simultaneous induction of the luciferases by the CMV promoter upon addition of doxycycline and test compounds. The CBR protein serves to normalize for non-specific effects, while the levels of the IκBα-CBG68 protein increase uniquely with inhibition of the NFκB pathway leading to IκBα degradation. (B) The nuclear translocation assay. TNFα stimulation results in nuclear translocation of NFκB, which is detected by immunofluorescence using an anti-p65 antibody and a secondary antibody labeled with an Alexa 647 fluorophore (A647). […]
To identify modulators of IkBα stability in ABC-DLBCL lines, such as small molecules inhibiting IKK or proteasome activity, changes in the level of an exogenous IkBα-luciferase fusion reporter expressed by an NFkB-insensitive promoter were measured. […] Upon doxycycline induction of both luciferase reporters, compounds that increased green luminescence with minimal effects on the red luminescence signal were scored as IkBα stabilizers. […]

NFkB [2] = assay: NFkB-dependent β-lactamase reporter assay (NFkB-bla), TNFα stimulated; assay type: cell-based
Description: By way of example, and not of limitation, such an assay may comprise contacting a cell expressing the NFκβ-dependent reporter construct, and monitoring the level of β-lactamase expression, wherein a decrease in expression compared to a cell not contacted with the compound indicates a reduction in NFκB activity.
The above-described assays were validated using known inhibitors of the NFkB pathway (FIG. 6). The proteasome inhibitor MG-132 (1) 16 served as a positive control for the IkBα stabilization assay. The translocation assay used BAY 11-7082 (2), an agent that inhibits the TNFα-induced phosphorylation of IkBα. […] Additionally, a substituted 2-(thiophen-2-yl)quinazoline 3 which acts as an inhibitor of NFkB and Aβ1 mediated transcriptional activation (Palanki et al., 2003, Bioorg. Med. Chem. Lett. 13:4077) was used as a positive control in a secondary assay that used TNFα to stimulate NFkB-dependent expression of a β-lactamase reporter (NFkB-bla in FIG. 7). This compound also served as a negative control for the dual luciferase IkBa stabilization assay.

- identified in IkBα stabilization screen (IkBα): identified
SMILES: O=S(=O)(Nc1cccc2cccnc12)c1ccccc1 [Compound 4, N-(quinolin-8-yl)benzenesulfonamide]
- identified in NFkB translocation screen (NFkB [1]): identified
- ability to inhibit the NFkB pathway (β-lactamase reporter) (NFkB [2]): confirmed the ability of these compounds to inhibit the NFkB pathway
